Data taken from US6914045B2, “Glycopeptide antibiotics” (Wyeth Holdings Corporation, priority 2001, dated 2005).
Converted amounts (≈) assume the structure as drawn.

Experiments:
Assay in all cases: in vitro antibacterial evaluation, MIC by broth dilution
Assay type in all cases: cell-based
[1] = system: Enterococcus sp.; conditions: broth dilution, 18 hours at 35° C.
How it was run: (§1)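 MIC = lowest antibiotic concentration preventing visible growth; inoculum 5×10^5 CFU/mL; drug range 64-0.06 μg/mL; Muller-Hinton II […]; NCCLS M7-A2 guidance.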

[2] = system: Streptococcus sp.; conditions: broth dilution, 18 hours at 35° C.
How it was run: as §1

[3] = system: Escherichia coli; conditions: 18 hours at 35° C.
How it was run: as §1

[4] = system: Staphylococcus sp.; conditions: broth dilution, 18 hours at 35° C.
How it was run: as §1

CCCCOC(=O)CCC1OCC2OC(OC3C(CO)OC(Oc4ccc(CC5NC(=O)C(C(C)c6ccccc6)NC(=O)CNC(=O)C(CO)NC(=O)C(C(O)C6CNC(=N)N6C6OC(CO)C(O)C(O)C6O)NC(=O)C(C(O)C6CNC(=N)N6)NC5=O)cc4)C(O)C3O)C(O)C(O)C2O1 (stereo not drawn) [Example 114, Cyclo[glycyl-β-methylphenylalanyl-O-[4-O-[4,6-O-(4-butoxy-4-oxobutylidene)hexopyranosyl]-hexopyranosyl]tyrosyl-3-(2-iminoimidazolidin-4-yl)seryl-3-(3-hexopyranosyl-2-iminoimidazolidin-4-yl)serylseryl]]
MIC Enterococcus avium (GC 4558) ([1]; Enterococcus avium (GC 4558)): 8 µg/mL (≈ 5.57 µM)
MIC Enterococcus faecalis (ATCC 29212) ([1]; Enterococcus faecalis (ATCC 29212)): 4 µg/mL (≈ 2.79 µM)
MIC Enterococcus faecalis (GC 2242) ([1]; Enterococcus faecalis (GC 2242)): 4 µg/mL (≈ 2.79 µM)
MIC Enterococcus faecalis (GC 2691) ([1]; Enterococcus faecalis (GC 2691)): 4 µg/mL (≈ 2.79 µM)
MIC Enterococcus faecalis (GC 3059) ([1]; Enterococcus faecalis (GC 3059)): 8 µg/mL (≈ 5.57 µM)
MIC Enterococcus faecalis (GC 4552) ([1]; Enterococcus faecalis (GC 4552)): 4 µg/mL (≈ 2.79 µM)
MIC Enterococcus faecalis (GC 4553) ([1]; Enterococcus faecalis (GC 4553)): 8 µg/mL (≈ 5.57 µM)
MIC Enterococcus faecalis (GC 4554) ([1]; Enterococcus faecalis (GC 4554)): 4 µg/mL (≈ 2.79 µM)
MIC Enterococcus faecalis (GC 6189) ([1]; Enterococcus faecalis (GC 6189)): 4 µg/mL (≈ 2.79 µM)
MIC Enterococcus faecium (GC 2243) ([1]; Enterococcus faecium (GC 2243)): 4 µg/mL (≈ 2.79 µM)
MIC Enterococcus faecium (GC 4556) ([1]; Enterococcus faecium (GC 4556)): 4 µg/mL (≈ 2.79 µM)
MIC Enterococcus faecium (GC 4557) ([1]; Enterococcus faecium (GC 4557)): 2 µg/mL (≈ 1.39 µM)
MIC Enterococcus faecalis (ATCC 29212) ([1]; strain ATCC 29212): 4 µg/mL (≈ 2.79 µM)
MIC Enterococcus faecalis (GC 2242) ([1]; strain GC 2242): 4 µg/mL (≈ 2.79 µM)
MIC Enterococcus faecium (GC 2243) ([1]; strain GC 2243): 4 µg/mL (≈ 2.79 µM)
MIC Enterococcus faecalis (GC 2691) ([1]; strain GC 2691): 4 µg/mL (≈ 2.79 µM)
MIC Enterococcus faecalis (GC 3059) ([1]; strain GC 3059): 8 µg/mL (≈ 5.57 µM)
MIC Enterococcus faecalis (GC 4552) ([1]; strain GC 4552): 4 µg/mL (≈ 2.79 µM)
MIC Enterococcus faecalis (GC 4553) ([1]; strain GC 4553): 8 µg/mL (≈ 5.57 µM)
MIC Enterococcus faecalis (GC 4554) ([1]; strain GC 4554): 4 µg/mL (≈ 2.79 µM)
MIC Enterococcus faecium (GC 4556) ([1]; strain GC 4556): 4 µg/mL (≈ 2.79 µM)
MIC Enterococcus faecium (GC 4557) ([1]; strain GC 4557): 2 µg/mL (≈ 1.39 µM)
MIC Enterococcus avium (GC 4558) ([1]; strain GC 4558): 8 µg/mL (≈ 5.57 µM)
MIC Enterococcus faecalis (GC 6189) ([1]; strain GC 6189): 4 µg/mL (≈ 2.79 µM)
MIC Streptococcus agalactiae (GC 4564) ([2]; Streptococcus agalactiae (GC 4564)): 0.5 µg/mL (≈ 0.348 µM)
MIC Streptococcus pneumoniae (ATCC 6301) ([2]; Streptococcus pneumoniae (ATCC 6301)): 0.12 µg/mL (≈ 0.0836 µM)
MIC Streptococcus pneumoniae (GC 1894) ([2]; Streptococcus pneumoniae (GC 1894)): <0.06 µg/mL
MIC Streptococcus pneumoniae (GC 4565) ([2]; Streptococcus pneumoniae (GC 4565)): 0.25 µg/mL (≈ 0.174 µM)
MIC Streptococcus pyogenes (GC 4563) ([2]; Streptococcus pyogenes (GC 4563)): 0.5 µg/mL (≈ 0.348 µM)
MIC Streptococcus pneumoniae (ATCC 6301) ([2]; strain ATCC 6301): 0.12 µg/mL (≈ 0.0836 µM)
MIC Streptococcus pneumoniae (GC 1894) ([2]; strain GC 1894): <0.06 µg/mL
MIC Streptococcus pyogenes (GC 4563) ([2]; strain GC 4563): 0.5 µg/mL (≈ 0.348 µM)
MIC Streptococcus agalactiae (GC 4564) ([2]; strain GC 4564): 0.5 µg/mL (≈ 0.348 µM)
MIC Streptococcus pneumoniae (GC 4565) ([2]; strain GC 4565): 0.25 µg/mL (≈ 0.174 µM)
MIC Escherichia coli (ATCC 25922) ([3]; strain ATCC 25922): 64 µg/mL (≈ 44.6 µM)
MIC Escherichia coli (GC 4559) ([3]; strain GC 4559): 64 µg/mL (≈ 44.6 µM)
MIC Escherichia coli (GC 4560) ([3]; strain GC 4560): 1 µg/mL (≈ 0.697 µM)
MIC Coagulase Negative Staphylococcus (GC 4547) [4]: 2 µg/mL (≈ 1.39 µM)
MIC Coagulase Negative Staphylococcus (GC 4548) [4]: 1 µg/mL (≈ 0.697 µM)
MIC Coagulase Negative Staphylococcus (GC 4549) [4]: 2 µg/mL (≈ 1.39 µM)
MIC Coagulase Negative Staphylococcus (GC 4551) [4]: 2 µg/mL (≈ 1.39 µM)
MIC Coagulase Negative Staphylococcus (GC 6257) [4]: 1 µg/mL (≈ 0.697 µM)
MIC Staphylococcus aureus (ATCC 29213) [4]: 2 µg/mL (≈ 1.39 µM)
MIC Staphylococcus aureus (GC 1131) [4]: 2 µg/mL (≈ 1.39 µM)
MIC Staphylococcus aureus (GC 3051) [4]: 2 µg/mL (≈ 1.39 µM)
MIC Staphylococcus aureus (GC 3053) [4]: 2 µg/mL (≈ 1.39 µM)
MIC Staphylococcus aureus (GC 4541) [4]: 2 µg/mL (≈ 1.39 µM)
MIC Staphylococcus aureus (GC 4542) [4]: 1 µg/mL (≈ 0.697 µM)
MIC Staphylococcus aureus (GC 4544) [4]: 2 µg/mL (≈ 1.39 µM)
MIC Staphylococcus aureus (GC 4545) [4]: 2 µg/mL (≈ 1.39 µM)
MIC Staphylococcus aureus-SMITH (GC 4543) [4]: 2 µg/mL (≈ 1.39 µM)
MIC Staphylococcus haemolyticus (GC 4546) [4]: 1 µg/mL (≈ 0.697 µM)
MIC Staphylococcus aureus (GC 1131) ([4]; inoculum 5×10^5 CFU/mL, strain GC 1131): 2 µg/mL (≈ 1.39 µM)
MIC Staphylococcus aureus (ATCC 29213) ([4]; strain ATCC 29213): 2 µg/mL (≈ 1.39 µM)
MIC Staphylococcus aureus (GC 3051) ([4]; strain GC 3051): 2 µg/mL (≈ 1.39 µM)
MIC Staphylococcus aureus (GC 3053) ([4]; strain GC 3053): 2 µg/mL (≈ 1.39 µM)
MIC Staphylococcus aureus (GC 4541) ([4]; strain GC 4541): 2 µg/mL (≈ 1.39 µM)
MIC Staphylococcus aureus (GC 4542) ([4]; strain GC 4542): 1 µg/mL (≈ 0.697 µM)
MIC Staphylococcus aureus (GC 4544) ([4]; strain GC 4544): 2 µg/mL (≈ 1.39 µM)
MIC Staphylococcus aureus (GC 4545) ([4]; strain GC 4545): 2 µg/mL (≈ 1.39 µM)
MIC Staphylococcus haemolyticus (GC 4546) ([4]; strain GC 4546): 1 µg/mL (≈ 0.697 µM)
MIC Coagulase Negative Staphylococcus (GC 4547) ([4]; strain GC 4547): 2 µg/mL (≈ 1.39 µM)
MIC Coagulase Negative Staphylococcus (GC 4548) ([4]; strain GC 4548): 1 µg/mL (≈ 0.697 µM)
MIC Coagulase Negative Staphylococcus (GC 4549) ([4]; strain GC 4549): 2 µg/mL (≈ 1.39 µM)
MIC Coagulase Negative Staphylococcus (GC 4551) ([4]; strain GC 4551): 2 µg/mL (≈ 1.39 µM)
MIC Coagulase Negative Staphylococcus (GC 6257) ([4]; strain GC 6257): 1 µg/mL (≈ 0.697 µM)
MIC Staphylococcus aureus-SMITH (GC 4543) ([4]; strain SMITH GC 4543): 2 µg/mL (≈ 1.39 µM)
